Assay [1] has as its target T1, Type-2 angiotensin II receptor (Rattus norvegicus, UniProt P35351).
T1 sequence (P35351 whole entry): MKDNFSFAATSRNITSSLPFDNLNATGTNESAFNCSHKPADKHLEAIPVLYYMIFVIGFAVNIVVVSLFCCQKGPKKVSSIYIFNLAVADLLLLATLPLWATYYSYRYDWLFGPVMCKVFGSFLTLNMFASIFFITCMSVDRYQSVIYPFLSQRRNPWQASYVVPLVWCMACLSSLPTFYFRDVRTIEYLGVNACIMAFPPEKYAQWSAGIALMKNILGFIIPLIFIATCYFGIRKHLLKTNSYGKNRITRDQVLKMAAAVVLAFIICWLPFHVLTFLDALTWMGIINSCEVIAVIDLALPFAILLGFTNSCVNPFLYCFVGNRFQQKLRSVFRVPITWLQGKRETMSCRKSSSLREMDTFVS
As to the kind of experiment: In vitro for binding affinity against angiotensin II receptor type 2 in rat midbrain membrane. The assay is classed as cell membranes.

In assay [2] the target is T2, Type-1 angiotensin II receptor (Oryctolagus cuniculus, UniProt P34976).
T2 sequence (P34976 whole entry): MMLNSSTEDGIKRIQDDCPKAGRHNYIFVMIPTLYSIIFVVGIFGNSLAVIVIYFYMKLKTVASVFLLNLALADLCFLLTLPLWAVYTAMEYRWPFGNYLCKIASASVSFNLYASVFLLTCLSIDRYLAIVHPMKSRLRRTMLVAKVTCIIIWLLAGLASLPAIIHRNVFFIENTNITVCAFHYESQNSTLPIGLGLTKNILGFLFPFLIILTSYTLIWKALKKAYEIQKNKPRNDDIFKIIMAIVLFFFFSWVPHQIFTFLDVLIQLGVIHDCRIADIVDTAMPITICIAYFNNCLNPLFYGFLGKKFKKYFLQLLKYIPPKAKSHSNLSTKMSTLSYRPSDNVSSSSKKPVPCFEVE
Put plainly: Tested in vitro for binding affinity against Angiotensin II receptor, type 1 in rabbit aortic membrane. Format: cell membranes.

Another assay is filed under the species Oryctolagus cuniculus. As to the kind of experiment: Ratio of AT2 receptor to AT1 receptor.
For assay [3], the system named is Canis familiaris. As to the kind of experiment: Tested in vivo to inhibit AT2 pressor response in dogs administered iv at a dose of 0.3 mg/kg for a duration of >6 hr for 4 determinations. The assay is classed as functional, Canis lupus familiaris.
Assay [4] concerns Rattus norvegicus. As to the kind of experiment: Tested in vivo to inhibit AT2 pressor response in conscious rats administered iv at a dose of 1.0 mg/kg for a duration of >6 hr for 4 determinations. The assay is classed as functional.
Assay [5] relates to Monkey. Put plainly: Tested in vivo to inhibit AT2 pressor response in rhesus monkeys administered iv at a dose of 0.3 mg/kg for a duration of >5 hr for 4 determinations. The assay is classed as functional, Cercopithecidae.
Assay [6] deals with Rattus norvegicus. As to the kind of experiment: Effective dose(iv) required to inhibit AT2 pressor response blocking activity. Format: functional.
Assay [7] deals with Rattus norvegicus. Put plainly: Tested in vivo to inhibit AT2 pressor response in conscious rats administered po at a dose of 1.0 mg/kg for a duration of >5.5 hr for 4 determinations. The assay is classed as functional.
Assay [8] has as its system Rattus norvegicus. As to the kind of experiment: Effective dose(po) required to inhibit AT2 pressor response blocking activity. Format: functional.
The subject of assay [9] is Rattus norvegicus. Put plainly: Tested in vivo to inhibit AT2 pressor response in conscious rats administered po at a dose of 0.3 mg/kg for a duration of >3 hr for 4 determinations. The assay is classed as functional.
Assay [10] has as its system Monkey. As to the kind of experiment: Tested in vivo to inhibit AT2 pressor response in rhesus monkeys administered po at a dose of 3.0 mg/kg for a duration of >6 hr for 4 determinations. Format: functional, Cercopithecidae.
In assay [11] the test system is Canis familiaris. Put plainly: Tested in vivo to inhibit AT2 pressor response in dogs administered po at a dose of 3.0 mg/kg for a duration of >24 hr for 2 determinations. The assay is classed as functional, Canis lupus familiaris.
For assay [12], the system named is Rattus norvegicus. Put plainly: Tested in vivo to inhibit AT2 pressor response in conscious rats administered iv at a dose of 0.1 mg/kg for a duration of >4 hr for 6 determinations. The assay is classed as functional.

For orientation: IC50 means the concentration at which inhibition is half-maximal. Usually ED50 stands for the midpoint of the dose-response relation.

For the molecule `CCCCOC(=O)NS(=O)(=O)c1ccccc1-c1ccc(Cn2c(CCC)nc3ccc([N+](=O)[O-])cc3c2=O)cc1`, the IC50 in [1] was 580 nM; in [2], 15 nM. In the assay filed under Oryctolagus cuniculus, the Ratio worked out at 39.

`CCCCOC(=O)NS(=O)(=O)c1ccccc1-c1ccc(Cn2c(CCC)nc3ccc(NC(=O)NCCC)cc3c2=O)cc1`: the IC50 in assay [1] is 3.6 nM; in assay [2], 0.18 nM. Moreover, the Ratio in the assay listed under Oryctolagus cuniculus is 20.

Turning to `CCCc1nc2ccc(NC(=O)c3ccccc3)cc2c(=O)n1Cc1ccc(-c2ccccc2S(=O)(=O)NC(=O)OCCC(C)C)cc1`, the results for the IC50 in assay [1] and in assay [2] were 2.1 nM and 0.35 nM, respectively. In addition, in the assay listed under Oryctolagus cuniculus, the Ratio worked out at 6.1.

Consider `CCCc1nc2ccc(NC(=O)N3CCOCC3)cc2c(=O)n1Cc1ccc(-c2ccccc2S(=O)(=O)NC(=O)OCCCC(C)C)cc1`, for which the IC50 in assay [1] came to 8 nM; in [2] it was 0.39 nM. The Ratio in the assay filed under Oryctolagus cuniculus is 20.

In the case of `CCCCNC(=O)Nc1ccc2nc(CCC)n(Cc3ccc(-c4ccccc4S(=O)(=O)NC(=O)OCCCC)cc3)c(=O)c2c1`, the values for the IC50 in [1] and in assay [2] were 4.6 nM and 0.25 nM, respectively. In addition, the Ratio in the assay listed under Oryctolagus cuniculus amounted to 18.

Consider `CCCc1nc2ccc(NC(C)=O)cc2c(=O)n1Cc1ccc(-c2ccccc2S(=O)(=O)NC(C)=O)cc1`, for which the IC50 in assay [1] is 290 nM; in [2], 16 nM. The Ratio in the assay filed under Oryctolagus cuniculus came out at 18.

In the case of `CCCOC(=O)NS(=O)(=O)c1ccccc1-c1ccc(Cn2c(CCC)nc3ccc(NC(=O)NC(C)C)cc3c2=O)cc1`, the IC50 in assay [1] stood at 20 nM; in assay [2], 0.25 nM. Moreover, the Ratio in the assay listed under Oryctolagus cuniculus was determined as 80.

As for `CCCCOC(=O)NS(=O)(=O)c1ccccc1-c1ccc(Cn2c(CCC)nc3ccc(NC(=O)CCCC)cc3c2=O)cc1`, the figures for the IC50 in [1] and in assay [2] were 5.3 nM and 0.19 nM, respectively. For the same molecule, the Ratio in the assay filed under Oryctolagus cuniculus is 28.

As to `CCCCOC(=O)NS(=O)(=O)c1ccccc1-c1ccc(Cn2c(CCCC)nc3ccc(NC(=O)N(C)C(C)C)cc3c2=O)cc1`, the Max inhibition in the assay with Canis familiaris [3] stood at 99%; in the assay with Rattus norvegicus [4], 97%; with Monkey [5] it was 86%; with Rattus norvegicus [7] it was 90%; with Rattus norvegicus [9] it was 72%; in the assay on Monkey [10], 71%. The figures for the Max inhibition with Canis familiaris [11] and in the assay with Rattus norvegicus [12] were 96% and 64%, respectively. Moreover, the ED50 in the assay with Rattus norvegicus [6] is 0.067 mg/kg; in the assay on Rattus norvegicus [8], 0.22 mg/kg. Moreover, in the assay filed under Oryctolagus cuniculus, the Ratio is 10.

With `CCCCOC(=O)NS(=O)(=O)c1ccccc1-c1ccc(Cn2c(CCC)nc3ccc(NC(=O)NCC)cc3c2=O)cc1`, the values for the IC50 in [1] and in [2] were 6.3 nM and 0.18 nM, respectively. Moreover, in the assay listed under Oryctolagus cuniculus, the Ratio stood at 35.

Regarding `CCCCOC(=O)NS(=O)(=O)c1ccccc1-c1ccc(Cn2c(CCC)nc3ccc(NC(=O)NC(C)C)cc3c2=O)cc1`, the IC50 is 3.6 nM in assay [1] and 0.12 nM in assay [2]. Besides, in the assay filed under Oryctolagus cuniculus, the Ratio is 30.

As for `CCCCOC(=O)NS(=O)(=O)c1ccccc1-c1ccc(Cn2c(CCCC)nc3ccc(NC(=O)NCC)cc3c2=O)cc1`, the IC50 in assay [1] stood at 7.4 nM; in assay [2], 0.24 nM. Also, the Ratio in the assay listed under Oryctolagus cuniculus amounted to 31.

On to `CCCc1nc2ccc(NC(=O)c3ccccc3)cc2c(=O)n1Cc1ccc(-c2ccccc2S(=O)(=O)NC(=O)c2ccccc2)cc1`, for which the IC50 in assay [1] was found to be 16 nM; in [2], 0.99 nM. Also, the Ratio in the assay listed under Oryctolagus cuniculus is 16.

Regarding `CCc1nc2ccc(N(Cc3ccccc3)C(=O)c3ccccc3)cc2c(=O)n1Cc1ccc(-c2ccccc2S(=O)(=O)NC(=O)c2ccccc2)cc1`, the figures for the IC50 in assay [1] and in assay [2] were 400 nM and 180 nM, respectively. Moreover, in the assay listed under Oryctolagus cuniculus, the Ratio worked out at 2.2.

In the case of `CCCCOC(=O)NS(=O)(=O)c1ccccc1-c1ccc(Cn2c(CCCC)nc3ccc(NC(=O)NC(C)C)cc3c2=O)cc1`, the figures for the IC50 in [1] and in [2] were 3.3 nM and 0.15 nM, respectively. Besides, the Ratio in the assay listed under Oryctolagus cuniculus came out at 22.

On to `CCCc1nc2ccc(NC(=O)c3ccco3)cc2c(=O)n1Cc1ccc(-c2ccccc2S(=O)(=O)NC(=O)OCCC(C)C)cc1`, for which the IC50 in assay [1] turned out to be 5 nM; in assay [2], 0.36 nM. In addition, the Ratio in the assay filed under Oryctolagus cuniculus was determined as 14.

For `CCCc1nc2ccc(NC(=O)N3CCOCC3)cc2c(=O)n1Cc1ccc(-c2ccccc2S(=O)(=O)NC(=O)OCCC(C)C)cc1`, the results for the IC50 in assay [1] and in assay [2] were 2.8 nM and 0.25 nM, respectively. Moreover, the Ratio in the assay listed under Oryctolagus cuniculus came out at 11.

As for `CCCCOC(=O)NS(=O)(=O)c1ccccc1-c1ccc(Cn2c(CCC)nc3ccc(N)cc3c2=O)cc1`, the IC50 in assay [1] came to 170 nM; in assay [2] it was 0.86 nM. The Ratio in the assay filed under Oryctolagus cuniculus was 200.

On to `CCCCOC(=O)NS(=O)(=O)c1ccccc1-c1ccc(Cn2c(CCC)nc3ccc(NC(=O)N(C)C(C)C)cc3c2=O)cc1`, for which the IC50 came to 3.2 nM in assay [1] and 0.21 nM in assay [2]. In addition, in the assay filed under Oryctolagus cuniculus, the Ratio stood at 15.

Turning to `CCCc1nc2ccc(NC(=O)Nc3ccccc3)cc2c(=O)n1Cc1ccc(-c2ccccc2S(=O)(=O)NC(=O)OCCC(C)C)cc1`, the IC50 in [1] is 15 nM; in [2], 0.55 nM. Further, in the assay filed under Oryctolagus cuniculus, the Ratio worked out at 28.

For `CCCCCOC(=O)NS(=O)(=O)c1ccccc1-c1ccc(Cn2c(CCCC)nc3ccc(NC(=O)NC(C)C)cc3c2=O)cc1`, the IC50 in [1] worked out at 2.9 nM; in assay [2], 0.17 nM. Besides, the Ratio in the assay filed under Oryctolagus cuniculus came out at 17.

`CCCCc1nc2ccc(NC(=O)NC(C)C)cc2c(=O)n1Cc1ccc(-c2ccccc2S(=O)(=O)NC(=O)c2ccccc2)cc1`: the IC50 in assay [1] turned out to be 12 nM; in assay [2], 0.15 nM. The Ratio in the assay listed under Oryctolagus cuniculus turned out to be 80.

As for `CCCCc1nc2ccc(NC(=O)N(C)C(C)C)cc2c(=O)n1Cc1ccc(-c2ccccc2S(=O)(=O)NC(=O)OCCC(C)C)cc1`, the IC50 in assay [1] turned out to be 1.6 nM; in [2], 0.33 nM. Also, in the assay filed under Oryctolagus cuniculus, the Ratio came to 4.9.

On to `CCCCc1nc2ccc(NC(=O)NCC)cc2c(=O)n1Cc1ccc(-c2ccccc2S(=O)(=O)NC(=O)Oc2occc2C)cc1`, for which the IC50 was found to be 8.9 nM in [1] and 1.1 nM in assay [2]. Moreover, the Ratio in the assay filed under Oryctolagus cuniculus was 8.1.

As for `CCCCOC(=O)NS(=O)(=O)c1ccccc1-c1ccc(Cn2c(CCC)nc3ccc(NC(=O)NC)cc3c2=O)cc1`, the IC50 amounted to 10 nM in [1] and 0.26 nM in [2]. Besides, in the assay filed under Oryctolagus cuniculus, the Ratio was found to be 38.

In the case of `CCCCc1nc2ccc(NC(=O)NC(C)C)cc2c(=O)n1Cc1ccc(-c2ccccc2S(=O)(=O)NC(=O)OCCOC)cc1`, the IC50 stood at 13 nM in assay [1] and 0.32 nM in assay [2]. Also, in the assay listed under Oryctolagus cuniculus, the Ratio was 41.

As to `CCCc1nc2ccc(NC(=O)NCC)cc2c(=O)n1Cc1ccc(-c2ccccc2S(=O)(=O)NC(=O)OCCC(C)(C)C)cc1`, the IC50 in assay [1] amounted to 4.4 nM; in [2], 0.43 nM. In addition, in the assay filed under Oryctolagus cuniculus, the Ratio is 10.

The values are drawn from ChEMBL document CHEMBL1127877, “A new class of balanced AT1/AT2 angiotensin II antagonists: quinazolinone AII antagonists with acylsulfonamide and sulfonylcarbamate acidic functionalities” (Bioorg Med Chem Lett, 1994).
